Experiments:
[1] = system: TRPA1; parameters: method as in Petrus et al. (2007); settings: mouse; ref Petrus et al. (2007); cited from earlier work
[2] = biological target: T1, human TRPA1 (Homo sapiens, UniProt O75762); assay: cell-based
T1 construct: Full length human TRPA1 cDNA was purchased from Origene Technologies; host or cells: HEK-293 (Invitrogen Flp-In system, hygromycin B selection)

[3] = system: spinal nerve ligation induced mechanical hypersensitivity; settings: rat, in vivo

T1 sequence (O75762 whole entry): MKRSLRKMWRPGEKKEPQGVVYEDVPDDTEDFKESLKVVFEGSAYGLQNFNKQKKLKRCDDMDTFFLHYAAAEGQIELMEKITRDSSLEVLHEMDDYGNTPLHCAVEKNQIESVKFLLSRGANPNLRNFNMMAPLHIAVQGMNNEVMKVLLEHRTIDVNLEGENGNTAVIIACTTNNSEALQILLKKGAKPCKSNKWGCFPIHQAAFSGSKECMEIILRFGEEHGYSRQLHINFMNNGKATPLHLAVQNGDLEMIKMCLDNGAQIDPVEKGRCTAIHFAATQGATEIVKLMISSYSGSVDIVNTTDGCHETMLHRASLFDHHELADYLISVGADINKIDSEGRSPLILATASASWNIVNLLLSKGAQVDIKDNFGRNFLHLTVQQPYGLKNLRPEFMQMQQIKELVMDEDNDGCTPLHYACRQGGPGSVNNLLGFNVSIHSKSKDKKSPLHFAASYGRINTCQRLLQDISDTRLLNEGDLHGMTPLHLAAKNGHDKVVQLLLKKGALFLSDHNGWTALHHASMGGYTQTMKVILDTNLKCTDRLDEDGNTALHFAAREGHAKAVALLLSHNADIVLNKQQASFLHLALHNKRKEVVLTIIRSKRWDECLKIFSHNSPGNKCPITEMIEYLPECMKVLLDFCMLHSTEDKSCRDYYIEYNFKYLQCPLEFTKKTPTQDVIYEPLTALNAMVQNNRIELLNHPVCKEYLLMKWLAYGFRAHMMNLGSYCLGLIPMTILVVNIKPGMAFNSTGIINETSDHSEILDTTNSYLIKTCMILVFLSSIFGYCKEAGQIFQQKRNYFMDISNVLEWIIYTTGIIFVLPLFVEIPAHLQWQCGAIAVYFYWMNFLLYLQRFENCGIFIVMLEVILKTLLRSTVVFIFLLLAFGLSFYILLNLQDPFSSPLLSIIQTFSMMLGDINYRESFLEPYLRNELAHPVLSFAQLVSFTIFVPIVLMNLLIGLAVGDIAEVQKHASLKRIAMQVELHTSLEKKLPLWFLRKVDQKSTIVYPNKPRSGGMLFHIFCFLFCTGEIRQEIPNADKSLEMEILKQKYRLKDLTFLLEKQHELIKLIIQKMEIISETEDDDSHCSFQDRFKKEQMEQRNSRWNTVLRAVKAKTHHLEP

CC(=C\c1ccc(Cl)cc1)/C(C)=N/O [AP18]
IC50 [1]: 4.5 µM

O=C/C=C/c1ccccc1 [cinnamaldehyde]
EC50 [2]: 15.9 µM

CC(C)C[C@H](CN)CC(=O)O [pregabalin]
effect on SNL mechanical hypersensitivity vs vehicle [3]: significant attenuation
percent reversal of SNL-induced mechanical hypersensitivity [3]: 56%

Source: publication PMC2584039 (Molecular Pain, 2008)
